Structures can show the parent of a compound that is named as a salt. Where two headings read alike, the source gives them in different places.

For the assay, the target named is T1, Rev-Erb alpha (Homo sapiens, UniProt P20393).
T1 sequence (P20393 284-614 limits assumed): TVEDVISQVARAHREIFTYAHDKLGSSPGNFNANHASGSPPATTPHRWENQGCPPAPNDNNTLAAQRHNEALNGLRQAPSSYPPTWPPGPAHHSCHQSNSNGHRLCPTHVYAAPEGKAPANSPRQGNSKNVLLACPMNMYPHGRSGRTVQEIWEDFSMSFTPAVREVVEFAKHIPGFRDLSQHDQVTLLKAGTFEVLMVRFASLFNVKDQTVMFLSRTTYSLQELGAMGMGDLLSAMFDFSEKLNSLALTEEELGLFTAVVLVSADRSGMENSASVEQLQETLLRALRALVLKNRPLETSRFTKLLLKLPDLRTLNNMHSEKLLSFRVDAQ
As to the kind of experiment: M2H (mammalian two-hybrid) cellular activation assay of Rev-Erb alpha. It is filed as cell-based. To be noted: for EC50: Gal4-Rev-Erb alpha / VP16-NCoR, luciferase reporter. An outline of the steps: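 Six-point dose-response, 18 h, 37 °C, serum-free, in HEK293 cells carrying a Gal4-RE luciferase reporter with Gal4-Rev-Erb alpha or beta plus VP16-NCoR (corepressor interaction readout). EC50 and TOP activation (%) derived from luminescence across four experiments.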
A general note: In a reporter assay the amount or activity of a reporter protein is the signal.

Where [1] appears, read: M2H assay, HEK293 cells, relative to DMSO, at the tested dose, read-out: TOP activation.

By EC50 is commonly meant the concentration giving half of the maximal effect. Low readings indicate greater potency, high ones weaker potency. The compound `Fc1cc(Oc2ccc3nnc(C(F)(F)F)n3n2)c(-c2ccccc2)cc1F` [Cpd.4-61, 3-trifluoromethyl-6-(4,5-difluorobiphenyl-2-yloxy)-[1,2,4]triazolo[4,3-b]pyridazine] came in with an EC50 (M2H assay, HEK293 cells) of 1000 to 6000 nM.

Compound `FC(F)(F)c1nnc2ccc(Oc3ccccc3-c3ccccc3)nn12` [Cpd.4-2, 6-(biphenyl-2-yloxy)-3-(trifluoromethyl)-[1,2,4]triazolo[4,3-b]pyridazine] returned a half-maximal effective concentration (EC50) (M2H assay, HEK293 cells) of 100 to 1000 nM. Same read-out and setting: with `Cc1cc2nnc(Cl)n2nc1Oc1c(-c2cncnc2)ccc(C(F)(F)F)c1F` [Cpd.5-31, 3-chloro-6-(2-fluoro-6-(pyrimidin-5-yl)-3-(trifluoromethyl)phenoxy)-7-methyl-[1,2,4]triazolo[4,3-b]pyridazine] the figure was 1000 to 6000 nM; with `FC(F)(F)c1ccc(-c2cscn2)c(Oc2ccc3nnc(Cl)n3n2)c1` [Cpd.4-106, 3-chloro-6-(2-(thiazol-4-yl)-5-(trifluoromethyl)phenoxy)-[1,2,4]triazolo[4,3-b]pyridazine], 1000 to 6000 nM. The same measure, in the same setting: under `N#Cc1ccc(-c2ccccc2)c(Oc2ccc3nnc(Cl)n3n2)c1` [Cpd.4-169, 3-chloro-6-(4-cyanobiphenyl-2-yloxy)-[1,2,4]triazolo[4,3-b]pyridazine] stands 100 to 1000 nM; under `CS(=O)(=O)Nc1ccc(Oc2ccc3nnc(Cl)n3n2)c(-c2ccccc2)c1` [Cpd.4-173, 3-chloro-6-(5-methylsulfonamidobiphenyl-2-yloxy)-[1,2,4]triazolo[4,3-b]pyridazine], 1000 to 6000 nM; under `Cc1cc(Oc2cc(C(F)(F)F)ccc2-c2cncnc2)nn2c(Cl)nnc12` [Cpd.5-30, 3-chloro-8-methyl-6-(2-(pyrimidin-5-yl)-5-(trifluoromethyl)phenoxy)-[1,2,4]triazolo[4,3-b]pyridazine], 1000 to 6000 nM. Same read-out and setting: under `COC(=O)c1cccc(-c2cc(F)ccc2Oc2ccc3nnc(Cl)n3n2)c1` [Cpd.4-75] stands 1000 to 6000 nM. In the case of `NCc1ccc(Oc2ccc3nnc(Cl)n3n2)c(-c2ccccc2)c1` [Cpd.4-171, 3-chloro-6-(5-aminomethylbiphenyl-2-yloxy)-[1,2,4]triazolo[4,3-b]pyridazine, trifluoroacetic acid salt], where the note is “M2H assay, HEK293 cells”, the EC50 was greater than 6000 nM. Further, the Emax under setting [1] is greater than 130%. Where the note is “M2H assay, HEK293 cells”, `COc1ncc(-c2ccc(C(F)(F)F)cc2Oc2nn3c(Cl)nnc3cc2C)c(OC)n1` [Cpd.5-51, 3-chloro-6-(2-(2,4-dimethoxypyrimidin-5-yl)-5-(trifluoromethyl)phenoxy)-7-methyl-[1,2,4]triazolo[4,3-b]pyridazine] gave an EC50 of 1000 to 6000 nM.

As to `Clc1nnc2ccc(Oc3cc(CNC4CCCC4)ccc3-c3ccccc3)nn12` [Cpd.4-179, 3-chloro-6-(4-cyclopentylaminomethylbiphenyl-2-yloxy)-[1,2,4]triazolo[4,3-b]pyridazine], the EC50 (M2H assay, HEK293 cells) is 1000 to 6000 nM.

As for `Fc1ccc(Oc2ccc3nnc(Cl)n3n2)c(-c2cccc(CN3CCCCC3)c2)c1` [hydrochloride], where the note is “HEK293, read-out: TOP activation”, the Emax is greater than 130%. For the same compound, the EC50 (M2H assay, HEK293 cells) was greater than 6000 nM. The compound `FC(F)(F)c1ccc(-c2ccccc2)c(Oc2nn3c(Cl)nnc3c3ccccc23)c1` [Cpd.5-1, 3-chloro-6-(4-trifluoromethyl-biphenyl-2-yloxy)-[1,2,4]triazolo[3,4-a]phthalazine] showed an EC50 (M2H assay, HEK293 cells) of less than 100 nM. Same read-out and setting: under `CCc1ncncc1-c1ccc(C(F)(F)F)cc1Oc1nn2c(Cl)nnc2cc1C` [Cpd.5-52, 3-chloro-6-(2-(4-ethylpyrimidin-5-yl)-5-(trifluoromethyl)phenoxy)-7-methyl-[1,2,4]triazolo[4,3-b]pyridazine] stands 1000 to 6000 nM; under `FC(F)(F)c1cccc(Oc2ccc3nnc(Cl)n3n2)c1-c1ccccc1`, less than 100 nM.

Regarding `CCCCN(CCCC)c1ccc(Oc2ccc3nnc(Cl)n3n2)c(-c2ccccc2)c1` [Cpd.4-57, 3-chloro-6-(5-dibutylamino-biphenyl-2-yloxy)-[1,2,4]triazolo[4,3-b]pyridazine], the EC50 (M2H assay, HEK293 cells) was in the range of 100 to 1000 nM. For the setting “M2H assay, HEK293 cells”, `OCc1ccc(-c2ccccc2)c(Oc2ccc3nnc(Cl)n3n2)c1` [Cpd.4-155, 3-chloro-6-(4-(hydroxymethyl)biphenyl-2-yloxy)-[1,2,4]triazolo[4,3-b]pyridazine] displayed an EC50 of 1000 to 6000 nM. For `Cc1nc(-c2ccc(Oc3nn4c(Cl)nnc4cc3C)c(-c3ccccc3)c2)no1` [Cpd.5-65, 3-chloro-7-methyl-6-(4-(5-methyl-1,2,4-oxadiazol-3-yl)-2-(phenyl)phenoxy)-[1,2,4]triazolo[4,3-b]pyridazine], the EC50 (M2H assay, HEK293 cells) is 1000 to 6000 nM. Same read-out and setting: with `Clc1nnc2ccc(Oc3ccc(CN4CCOCC4)cc3-c3ccccc3)nn12` [Cpd.4-62, 3-chloro-6-(5-morpholinomethyl-biphenyl-2-yloxy)-[1,2,4]triazolo[4,3-b]pyridazine] the figure was 1000 to 6000 nM.

Consider `Clc1nnc2ccc(Oc3cc(CNCC4CCCO4)ccc3-c3ccccc3)nn12` (stereo not shown) [Cpd.4-180], for which, where the note is “M2H assay, HEK293 cells”, the EC50 was greater than 6000 nM. Besides, under setting [1], the Emax is greater than 130%. Taken in the same sequence, the figures for `CCCCn1cc(-c2ccc(C(F)(F)F)cc2Oc2ccc3nnc(Cl)n3n2)ccc1=O` [Cpd.4-89, 1-butyl-5-(2-(3-chloro-[1,2,4]triazolo[4,3-b]pyridazin-6-yloxy)-4-(trifluoromethyl)phenyl)pyridin-2(1H)-one] were greater than 6000 nM and greater than 130%. Taken in the same sequence, the figures for `Clc1nnc2ccc(Oc3ccccc3-c3nccs3)nn12` [Cpd.4-104, 3-chloro-6-(2-(thiazol-2-yl)phenoxy)-[1,2,4]triazolo[4,3-b]pyridazine] were greater than 6000 nM and greater than 130%.

`Cc1ncncc1-c1ccc(C(F)(F)F)cc1Oc1cc(C)c2nnc(Cl)n2n1` [Cpd.5-45, 3-chloro-8-methyl-6-(2-(4-methylpyrimidin-5-yl)-5-(trifluoromethyl)phenoxy)-[1,2,4]triazolo[4,3-b]pyridazine] had an EC50 (M2H assay, HEK293 cells) of 1000 to 6000 nM. Still for that read-out and setting: with `Cc1ccc(-c2ccc(C(F)(F)F)cc2Oc2cc(C)c3nnc(Cl)n3n2)cn1` [Cpd.5-16, 3-chloro-8-methyl-6-(2-(6-methylpyridin-3-yl)-5-(trifluoromethyl)phenoxy)-[1,2,4]triazolo[4,3-b]pyridazine] the figure was 100 to 1000 nM. Turning to `CS(=O)(=O)N1CCN(Cc2ccc(Oc3ccc4nnc(Cl)n4n3)c(-c3ccccc3)c2)CC1` [Cpd.4-164, 3-chloro-6-(5-(4-methanesulfonyl-piperazin-1-ylmethyl)biphenyl-2-yloxy)-[1,2,4]triazolo[4,3-b]pyridazine], the concentration for a half-maximal effect (EC50) (M2H assay, HEK293 cells) was 1000 to 6000 nM.

`CCCOc1ccc(-c2ccc(C(F)(F)F)cc2Oc2ccc3nnc(Cl)n3n2)cn1` [Cpd.4-92, 3-chloro-6-(2-(6-propoxypyridin-3-yl)-5-(trifluoromethyl)phenoxy)-[1,2,4]triazolo[4,3-b]pyridazine hydrochloride]: for the setting “M2H assay, HEK293 cells”, the concentration for a half-maximal effect (EC50) was greater than 6000 nM. Besides, the Emax under setting [1] is greater than 130%.

On to `Oc1cccc(-c2ccc(C(F)(F)F)cc2Oc2ccc3nnc(Cl)n3n2)c1` [Cpd.4-37, 6-(3′-hydroxy-4-trifluoromethyl-biphenyl-2-yloxy)-3-chloro-[1,2,4]triazolo[4,3-b]pyridazine], for which the EC50 (M2H assay, HEK293 cells) fell in the range of 100 to 1000 nM.

Turning to `O=C(c1ccccc1)c1cc(Cl)ccc1Oc1ccc2nnc(Cl)n2n1` [Cpd.4-42, (5-chloro-2-(3-chloro-[1,2,4]triazolo[4,3-b]pyridazin-6-yloxy)phenyl)(phenyl)methanone], the EC50 (M2H assay, HEK293 cells) lay within 1000 to 6000 nM.

Where the note is “M2H assay, HEK293 cells”, `CN1CCN(Cc2ccc(-c3ccccc3)c(Oc3ccc4nnc(Cl)n4n3)c2)CC1` [Cpd.4-177, 3-chloro-6-(4-(1-methylpiperazin-4-ylmethyl)biphenyl-2-yloxy)-[1,2,4]triazolo[4,3-b]pyridazine] came in with an EC50 greater than 6000 nM. The Emax under setting [1] was greater than 130%. `Cc1cccc(-c2cc(F)ccc2Oc2ccc3nnc(C(F)(F)F)n3n2)c1` [Cpd.4-136, 3-(trifluoromethyl)-6-(5-fluoro-3′-methylbiphenyl-2-yloxy)-[1,2,4]triazolo[4,3-b]pyridazine] had a concentration for a half-maximal effect (EC50) (M2H assay, HEK293 cells) of 100 to 1000 nM. Still for that read-out and setting: under `CN(Cc1ccc(Oc2ccc3nnc(Cl)n3n2)c(-c2ccccc2)c1)C1CCCCC1` stands 1000 to 6000 nM. Compound `Clc1nnc2ccc(Oc3ccccc3-c3cscn3)nn12` [Cpd.4-103, 3-chloro-6-(2-(thiazol-4-yl)phenoxy)-[1,2,4]triazolo[4,3-b]pyridazine] gave an EC50 (M2H assay, HEK293 cells) greater than 6000 nM. The Emax under setting [1] was greater than 130%.

Consider `Clc1nnc2ccc(Oc3ccccc3-c3ccc4scnc4c3)nn12` [Cpd.4-110, 6-(2-(benzo[d]thiazol-5-yl)phenoxy)-3-chloro-[1,2,4]triazolo[4,3-b]pyridazine], for which the EC50 (M2H assay, HEK293 cells) lay in the range of 100 to 1000 nM. The same measure, in the same setting: under `CC(C)C(=O)Nc1ccc(Oc2ccc3nnc(Cl)n3n2)c(-c2ccccc2)c1` [Cpd.4-192, 3-chloro-6-(5-isopropylcarbonylamino-biphenyl-2-yloxy)-[1,2,4]triazolo[4,3-b]pyridazine] stands 1000 to 6000 nM; under `Clc1nnc2ccc(Oc3ccccc3-c3ccsc3)nn12` [Cpd.4-108, 3-chloro-6-(2-(thiophen-3-yl)phenoxy)-[1,2,4]triazolo[4,3-b]pyridazine], 100 to 1000 nM. As to `Clc1nnc2ccc(Oc3ccc(CNCC4CCCO4)cc3-c3ccccc3)nn12` (stereo not shown) [Cpd.4-163, 3-chloro-6-(5-(tetrahydrofurfurylaminomethyl)biphenyl-2-yloxy)-[1,2,4]triazolo[4,3-b]pyridazine], the EC50 (M2H assay, HEK293 cells) is greater than 6000 nM. The Emax under setting [1] is greater than 130%. In the case of `Fc1cccc(-c2cccc(Oc3ccc4nnc(Cl)n4n3)c2)c1` [Cpd.3-6, 6-(3′-fluoro-biphenyl-3-yloxy)-3-chloro-[1,2,4]triazolo[4,3-b]pyridazine], the EC50 (M2H assay, HEK293 cells) fell in the range of 100 to 1000 nM.

The values are drawn from US9586963B2 (GENFIT, priority 2011, dated 2017).
